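Cells were grown in 96-well plates and exposed to each compound for 48 hours at five concentrations; endpoints were interpolated linearly between bracketing concentrations, or set to the highest concentration if not reached. At the GI50, growth is halved.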 Calls of active or inactive are those of the source. Rule as the data show it: active = GI50 up to about 1.1 µM and inactive = higher.
Tests used:
Test in all cases: DTP human tumour cell line panel, 48 h
A498 = system: A498
ACHN = system: ACHN
HCT-15 = system: HCT-15
IGROV-1 = system: IGROV-1
MDA-MB-435 = system: MDA-MB-435
MDA-N = system: MDA-N
NCI-H226 = system: NCI-H226
NCI-H23 = system: NCI-H23
NCI-H460 = system: NCI-H460
SK-MEL-28 = system: SK-MEL-28
SK-MEL-5 = system: SK-MEL-5
SNB-19 = system: SNB-19
SNB-75 = system: SNB-75
TK-10 = system: TK-10
UO-31 = system: UO-31
EKVX = system: EKVX
M14 = system: M14
OVCAR-4 = system: OVCAR-4
SK-OV-3 = system: SK-OV-3

Structure (SMILES)	GI50 (A498)	GI50 (ACHN)	GI50 (HCT-15) [µM]	GI50 (IGROV-1)	GI50 (MDA-MB-435)	GI50 (MDA-N)	GI50 (NCI-H226)	GI50 (NCI-H23)	GI50 (NCI-H460)	GI50 (SK-MEL-28)	GI50 (SK-MEL-5)	GI50 (SNB-19)	GI50 (SNB-75)	GI50 (TK-10)	GI50 (UO-31)	GI50 (EKVX)	GI50 (M14)	GI50 (OVCAR-4)	GI50 (SK-OV-3)
Cn1nc(Cc2ccc(Cl)cc2)n(N)c1=O	> 100 µM (inactive)	> 100 µM (inactive)	> 100	> 100 µM (inactive)	> 100 µM (inactive)	> 100 µM (inactive)	> 100 µM (inactive)	> 100 µM (inactive)	> 100 µM (inactive)	> 100 µM (inactive)	> 100 µM (inactive)	> 100 µM (inactive)	> 100 µM (inactive)	> 100 µM (inactive)	> 100 µM (inactive)				
O=C1OC(c2ccco2)=N/C1=C\c1cccc([N+](=O)[O-])c1	> 100 µM (inactive)	> 100 µM (inactive)	> 100	> 100 µM (inactive)	> 100 µM (inactive)	> 100 µM (inactive)	> 100 µM (inactive)	> 100 µM (inactive)	> 100 µM (inactive)	> 100 µM (inactive)	> 100 µM (inactive)	> 100 µM (inactive)	> 100 µM (inactive)	> 100 µM (inactive)		> 100 µM (inactive)	> 100 µM (inactive)	> 100 µM (inactive)	> 100 µM (inactive)
CC(C)(C)c1cc(C(C)(C)C)c(SC2OC(CO)C(O)C(O)C2O)c(O)c1O (stereo not given)	14.7 µM (inactive)	6.53 µM (inactive)	4.54	9.64 µM (inactive)	4.94 µM (inactive)	4.12 µM (inactive)	12.3 µM (inactive)	4.42 µM (inactive)	3.24 µM (inactive)	15.6 µM (inactive)	5.57 µM (inactive)	8.02 µM (inactive)	1.55 µM (inactive)	12.1 µM (inactive)	11.4 µM (inactive)	10.8 µM (inactive)	18.3 µM (inactive)	12.3 µM (inactive)	15.2 µM (inactive)
CC(C)(C)C1=CC(O)(c2c3ccccc3c(C3(O)C=C(C(C)(C)C)C(=O)C(C(C)(C)C)=C3)c3ccccc23)C=C(C(C)(C)C)C1=O	0.116 µM (active)	> 100 µM (inactive)	> 100	> 100 µM (inactive)	< 0.01 µM (active)	> 100 µM (inactive)	> 100 µM (inactive)	> 100 µM (inactive)		> 100 µM (inactive)	> 100 µM (inactive)	> 100 µM (inactive)	35.2 µM (inactive)	> 100 µM (inactive)	> 100 µM (inactive)	> 100 µM (inactive)	> 100 µM (inactive)	> 100 µM (inactive)	> 100 µM (inactive)
CC(=O)Oc1ccc2c3c1[C@@H]1O[C@@H]1c1cccc(c1-3)[C@@H]1O[C@H]21	2.19 µM (inactive)	1.84 µM (inactive)	1.66		1.14 µM (inactive)	1.84 µM (inactive)	18.2 µM (inactive)	1.63 µM (inactive)		1.96 µM (inactive)	1.61 µM (inactive)	3.01 µM (inactive)	1.63 µM (inactive)	2.08 µM (inactive)	1.52 µM (inactive)	2.02 µM (inactive)	1.72 µM (inactive)	2.03 µM (inactive)	3.44 µM (inactive)
CN(CCC(=O)N1CC(CCl)c2ccc([N+](=O)[O-])cc21)CCC(=O)N1CC(CCl)c2ccc([N+](=O)[O-])cc21 (stereo not given)	19.3 µM (inactive)	0.074 µM (active)	13.2		13.9 µM (inactive)	15 µM (inactive)	6.95 µM (inactive)	14.7 µM (inactive)	24.7 µM (inactive)	15.5 µM (inactive)	12.3 µM (inactive)	> 100 µM (inactive)	2.56 µM (inactive)	10.4 µM (inactive)		12.7 µM (inactive)	10.1 µM (inactive)	42.7 µM (inactive)	29.6 µM (inactive)
COc1ccccc1/N=N/c1c(O)c(S(=O)(=O)O)cc2cc(S(=O)(=O)O)ccc12	> 100 µM (inactive)	> 100 µM (inactive)	> 100	> 100 µM (inactive)	> 100 µM (inactive)	> 100 µM (inactive)	> 100 µM (inactive)	> 100 µM (inactive)		> 100 µM (inactive)	> 100 µM (inactive)	> 100 µM (inactive)	> 100 µM (inactive)	> 100 µM (inactive)	> 100 µM (inactive)	> 100 µM (inactive)	> 100 µM (inactive)	> 100 µM (inactive)	> 100 µM (inactive)
COc1cc2c3c(c1O)C1(C=CC(=O)C=C1)CC3N(C)CC2 (stereo not given) [GLAZIOVINE]	17.7 µM (inactive)	14.5 µM (inactive)	5.96	6.22 µM (inactive)	11 µM (inactive)	10.7 µM (inactive)	22 µM (inactive)	11.2 µM (inactive)	4.11 µM (inactive)	13.2 µM (inactive)	14 µM (inactive)	14.3 µM (inactive)	4.57 µM (inactive)	21.6 µM (inactive)		8.41 µM (inactive)	12.1 µM (inactive)	5.97 µM (inactive)	31.3 µM (inactive)
